{"source": "patent US20150190416A1", "about": "“FILAGGRIN PRODUCTION PROMOTER, THERAPEUTIC AGENT FOR DISEASES ASSOCIATED WITH REDUCTION IN PRODUCTION OF FILAGGRIN, AND METHOD FOR SCREENING FOR SAID THERAPEUTIC AGENT” (KYOTO UNIVERSITY, priority 2012, published 2015)", "key": {"GPR142 [1]": {"test_system": "GPR142", "experiment": "Blocking effect by GPR142 RNAi in NHEK cells (Examples 5 and 6)", "assay_type": "cell-based, human", "conditions": "1 day; for induction of FLG mRNA expression: dependence on GPR142: GPR142 siRNA, compound 10 nM", "description": "In this example, it was confirmed that the expression-inducing effects of Compound 1 on GPR142 mRNA and FLG mRNA in NHEK cells were blocked by GPR142 RNAi.\n1) 5×10^4 cells/well of NHEK cells (Invitrogen) were plated on a 24-well plate. Then, 500 μl of a culture medium containing a medium for proliferating normal human epidermal keratinocytes (HuMedia-KG2, KURABO INDUSTRIES LTD.) supplemented with hEGF (0.1 ng/ml), insulin (10 μg/ml), hydrocortisone (0.5 μg/ml), gentamycin (50 μg/ml), amphotericin B (50 ng/ml), and bovine brain pituitary extract (BPE) (0.4%, v/v) were added to the plate, and the cells were cultured under the conditions of 37° C. and 5% CO2.\n2) After culture under the conditions of the step 1) for 1 day, the medium was exchanged for the culture medium of the step 1) to which CaCl2 (1.2 mM in terms of Ca) was further added as Ca, and culture was conducted under the conditions of 37° C. and 5% CO2. After culture for 1 day, the medium was exchanged for the same culture medium containing Ca, and culture was further conducted for 1 day.\n3) The NHEK cells of the step 2) were transfected with 50 nM of siRNA per well of the 24-well plate by using a transfection reagent, Lipofectamine RNA Max (Invitrogen) according to the manufacturer's protocol.\nThe sequences of the used three kinds of GPR142 siRNAs and the sequences of the used control siRNAs (all the siRNAs are manufactured by Invitrogen) are described below.\n4) After culture for 1 day after the transfection with siRNA in the step 3), the medium was exchanged for the culture medium of the step 1) to which a DMSO solution of Compound 1 was added at 10 nM per well, and culture was further conducted for 1 day. As a control, a solvent only (vehicle) was added.\n5) An extraction reagent (TRIzol™, Invitrogen) was used, and according to the manufacturer's protocol, total RNA was extracted from each of cells treated with the medicament. A reverse transcriptase reagent (Prime Script™, Takara) was used, and according to the manufacturer's protocol, cDNA was prepared from the total RNA. Next, real-time PCR was conducted by using the following primers and SYBR™ Premix Ex Taq (Takara) with a CFX96 real-time PCR instrument according to the manufacturer's protocol, and the amounts of GPR142 mRNA and FLG mRNA expression were measured. The result of measurement is shown as a GAPDH ratio.\nIn this example, it was confirmed that the expression-inducing effects of Compound 2 or 3 on GPR142 mRNA and FLG mRNA in NHEK cells were blocked by GPR142 RNAi.\nNHEK cells were transfected in the same manner as in Example 5 except that, in the steps 1) to 3) of Example 5, two kinds of GPR142 siRNAs and two kinds of control siRNAs, i.e., GPR142-1 (#HSS139493) and GPR142-3 (#HSS179846) and Control-1 (LOW GC, #129350-200), and Control-3 (HIGH GC, #129350-400) were used as GPR142 siRNAs and control siRNAs, respectively. After culture for 1 day after the transfection was conducted in the same manner as in the step 4) of Example 5, the medium was exchanged for the culture medium to which each of a DMSO solution of Compound 1, a DMSO solution of Compound 2, or a methanol solution of Compound 3 was added at 10 nM per well, and culture was further conducted for 1 day. As a control, a solvent only (vehicle) was added. Regarding each of cells treated with the medicament, real-time PCR was conducted to measure the amounts of GPR142 mRNA and FLG mRNA in the same manner as in the step 5) of Example 5. The results of the measurement are shown as a GAPDH ratio."}, "GPR142 [2]": {"test_system": "GPR142", "experiment": "Action on adenylate cyclase activity (cAMP) in GPR142-overexpressing HEK293T cells (Examples 8 and 9)", "assay_type": "cell-based, human", "conditions": "forskolin 10 μM, IBMX 1 mM", "description": "In this example, the cAMP production-suppressing effect of Compound 1 was confirmed.\n1) 6×10^4 cells/well of HEK293T cells were plated on a collagen-coated 24-well plate, a culture medium containing DMEM medium (Invitrogen) supplemented with penicillin (50 μg/ml), streptomycin (50 μg/ml), and fetal bovine serum (FBS) (10%, v/v) was added to the plate, and the cells were cultured under the conditions of 37° C. and 5% CO2.\n2) A GPR142PCXN mammalian expression vector was prepared in the same manner as in the step 2) of Example 7.\n3) After culture for 1 day under the conditions of the step 1), HEK293T cells were transfected with 0.2 μg of the GPR142PCXN mammalian expression vector per well by using a transfection reagent Fugene™ HD (Promega Corporation) according to the manufacturer's protocol. As a control, cells transfected only with the PCXN mammalian expression vector were used.\n4) After culture for 1 day after the transfection described above, 1 mM of isobutylmethylxanthine (IBMX), which was a cAMP phosphodiesterase inhibitory substance, was added to HEK293T cells, and thereafter, the cells were cultured for 10 minutes at 37° C.\n5) Next, the medium was exchanged for the culture medium to which 0.1 nM to 1000 nM of a DMSO solution of Compound 1, 10 μM of forskolin, and 1 mM of IBMX per well were added, and the cells were further cultured for 20 minutes at 37° C. As a control, a solvent (vehicle), 10 μM of forskolin, and 1 mM of IBMX were added.\n6) The cells cultured in the step 5) were lysed by 0.1 mol/L of HCl. The cAMP concentration within the cells was measured by using Cyclic AMP EIA Kit (Cayman Chemical Company) according to the manufacturer's protocol. The result is shown as the ratio (%) of the cAMP concentration in the cells treated with Compound 1 with respect to the cAMP concentration in the control example defined as 100%.\nIn this example, the cAMP production-suppressing effect of Compound 2 or 3 was confirmed.\nHEK293T cells were cultured in the same manner as in the steps 1) to 4) of Example 8. Next, the cells were cultured in the same manner as in the step 5) of Example 8 except that, in the step 5) of Example 8, each of a methanol solution of Compound 3, a DMSO solution of Compound 2, and a DMSO solution of Comparative Compound 2 was used at 1,000 nM per well instead of Compound 1. The cAMP concentration in the cultured cells was measured in the same manner as in the step 6) of Example 8."}, "[3]": {"conditions": "calcium priming, siRNA 50 nM, Compound 1 10 nM"}}, "data": [{"smiles": "CC[C@H](C)[C@H]1O[C@]2(CC[C@@H]1C)C[C@@H]1C[C@@H](C/C=C(\\C)[C@@H](O[C@H]3C[C@H](OC)[C@@H](O[C@H]4C[C@H](OC)[C@@H](O)[C@H](C)O4)[C@H](C)O3)[C@@H](C)/C=C/C=C3\\CO[C@@H]4[C@H](O)C(C)=C[C@@H](C(=O)O1)[C@]34O)O2", "note": "[Compound 2, Ivermectin, reference compound]", "values": [{"measurement": "induction of FLG mRNA expression: dependence on GPR142", "setting": "GPR142 [1]", "value": "mediated by GPR142"}, {"measurement": "decrease of cAMP production", "setting": "GPR142 [2]; GPR142-overexpressing HEK293T cells, 1,000 nM, 20 minutes", "value": "about 20%"}]}, {"smiles": "O=C(CCCCCN1C(=O)c2cccc3cccc(c23)C1=O)NO", "note": "[Comparative Compound 2, 6-(1,3-Dioxo-1H,3H-benzo[de]isoquinolin-2-yl)hexanoic acid hydroxyamide, reference compound]", "values": [{"measurement": "cAMP production-suppressing action, in words", "setting": "GPR142 [2]; GPR142-overexpressing HEK293T cells, 1,000 nM", "value": "no cAMP production-suppressing action was observed"}]}, {"smiles": "CCc1ccc(OCc2ccccc2C(=O)Nc2ccc3nc(C)cc(N)c3c2)cc1.Cl", "note": "[Compound 1, N-(4-Amino-2-methyl-6-quinolyl)-2-[(4-ethylphenoxy)methyl]benzamide hydrochloride]", "values": [{"measurement": "induction of FLG mRNA expression: dependence on GPR142", "setting": "GPR142 [1]", "value": "mediated by GPR142"}, {"measurement": "FLG mRNA expression in the presence of GPR142 siRNA", "setting": "GPR142 [1]; [3]", "value": "suppressed by GPR142 siRNA"}, {"measurement": "GPR142 mRNA expression in the presence of GPR142 siRNA", "setting": "GPR142 [1]; [3]", "value": "suppressed by GPR142 siRNA"}, {"measurement": "cAMP production", "setting": "GPR142 [2]; GPR142-overexpressing HEK293T cells, 0.1 nM to 1000 nM, 20 minutes", "value": "decreased cAMP production via GPR142 dose-dependently"}]}]}
